Here are results for seven compounds from patent US12582654B2, “Cyano-substituted pyridine and cyano-substituted pyrimidine compound and preparation method therefor and application thereof” (BEIJING SCITECH-MQ PHARMACEUTICALS LIMITED, priority 2019, dated 2026).

One series addresses FGFR4 kinase (Homo sapiens, UniProt P22455). Briefly: Inhibition of FGFR4 kinase activity (ULight-labeled JAK-1 peptide, EU665/EU615 reading). The conditions noted are these: FGFR4 kinase 3.85 nM, ATP 100 μM, enzymatic reaction 2 hours. The series is classed as biochemical. Put shortly: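 TR-FRET kinase assay using 3.85 nM FGFR4, 100 μM ATP and 100 nM ULight-JAK-1 (Tyr1023) peptide; 5 min enzyme–compound preincubation, then 2 h at room temperature. Compounds at 11 3-fold dilutions from 2.5 μM down to 0.042 nM, 1% DMSO. IC50 from EU665/EU615 ratio inhibition curves.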

A further series has as its target FGFR4 V550L kinase (Homo sapiens, UniProt P22455, V550L). Put plainly: Inhibition of FGFR4 V550L mutant kinase activity (ULight-labeled PolyGT, EU665/EU615 reading). Conditions: FGFR4 V550L kinase 1 nM, ATP 10 μM, enzymatic reaction 2 hours. It counts as biochemical. Put shortly: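 TR-FRET kinase assay: 1 nM FGFR4 V550L, 10 μM ATP, 100 nM ULight-PolyGT substrate, 2 h at room temperature after 5 min compound–enzyme preincubation, 1% DMSO. Compound tested as 11-point 3-fold dilution from 2.5 μM to 0.042 nM final. Signal as EU665/EU615 ratio; IC50 fitted from % inhibition.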

A further series concerns the target T1, Ba/F3 ETV6-FGFR4 cells (Homo sapiens, UniProt P22455).
T1 construct: fused on or other part: N-terminal part of ETV6 (TEL), the oligomerising partner that makes the FGFR4 kinase constitutively active; P41212 (Transcription factor ETV6)
Put plainly: Inhibition of cell proliferation (CCK-8), Ba/F3 ETV6-FGFR4 cells. The series is classed as cell-based. The conditions noted are these: 72 hours of incubation, read-out: Ba/F3 ETV6-FGFR4 IC50. In outline: (§1)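 Ba/F3 cells expressing ETV6-FGFR4 or ETV6-FGFR4-V550L exposed for 72 h to 9 concentrations from 4-fold serial dilution (0.25% DMSO final). Viability by CCK-8, OD 450 nm after 1–2 h at 37 °C, relative to untreated and cell-free blanks; IC50 from curve fitting.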

Series [1] deals with T2, Ba/F3 ETV6-FGFR4-V550L cells (Homo sapiens, UniProt P22455, V550L, cells depend on it).
T2 construct: fused on or other part: N-terminal part of ETV6 (TEL), the oligomerising partner of the fusion; already named as the first entry; P41212 (Transcription factor ETV6)
T2 sequence (P22455 whole entry V550L, the tested form may be a part): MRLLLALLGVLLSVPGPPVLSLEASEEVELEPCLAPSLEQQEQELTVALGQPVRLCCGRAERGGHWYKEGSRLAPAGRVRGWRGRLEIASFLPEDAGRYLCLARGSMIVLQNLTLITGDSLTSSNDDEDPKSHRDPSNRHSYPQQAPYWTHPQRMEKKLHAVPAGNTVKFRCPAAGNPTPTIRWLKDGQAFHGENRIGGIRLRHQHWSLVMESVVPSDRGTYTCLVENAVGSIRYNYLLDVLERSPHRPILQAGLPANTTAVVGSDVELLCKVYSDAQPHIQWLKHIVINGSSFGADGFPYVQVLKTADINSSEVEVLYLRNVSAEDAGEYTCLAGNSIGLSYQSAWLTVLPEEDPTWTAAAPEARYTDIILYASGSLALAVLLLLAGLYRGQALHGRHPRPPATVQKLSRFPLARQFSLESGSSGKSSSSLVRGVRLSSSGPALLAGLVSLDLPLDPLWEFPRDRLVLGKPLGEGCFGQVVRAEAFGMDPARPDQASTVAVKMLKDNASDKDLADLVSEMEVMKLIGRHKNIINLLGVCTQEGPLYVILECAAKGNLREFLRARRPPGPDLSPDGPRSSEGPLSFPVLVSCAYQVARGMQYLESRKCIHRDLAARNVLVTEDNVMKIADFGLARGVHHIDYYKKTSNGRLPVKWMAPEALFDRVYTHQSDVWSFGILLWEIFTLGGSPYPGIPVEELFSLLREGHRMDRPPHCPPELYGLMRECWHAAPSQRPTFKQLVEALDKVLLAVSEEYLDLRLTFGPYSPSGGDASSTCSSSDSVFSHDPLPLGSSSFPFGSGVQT
Put plainly: Inhibition of cell proliferation (CCK-8), Ba/F3 ETV6-FGFR4-V550L cells. It counts as cell-based. The conditions noted are these: 72 hours of incubation, read-out: Ba/F3 ETV6-FGFR4-V550L IC50. In outline: as §1

Series [2] deals with FGF19 gene-amplified cells. Conditions: cited from earlier work.
The conditions of series [3]: mouse and monkey animal models; cited from earlier work.
In a further series the test system is FGFR. Conditions: cited from earlier work.
The subject of another series is each subtype of FGFR. The conditions noted are these: cited from earlier work.

Some results are limits rather than exact numbers.

FGFR4 kinase, sequence (P22455 22-802): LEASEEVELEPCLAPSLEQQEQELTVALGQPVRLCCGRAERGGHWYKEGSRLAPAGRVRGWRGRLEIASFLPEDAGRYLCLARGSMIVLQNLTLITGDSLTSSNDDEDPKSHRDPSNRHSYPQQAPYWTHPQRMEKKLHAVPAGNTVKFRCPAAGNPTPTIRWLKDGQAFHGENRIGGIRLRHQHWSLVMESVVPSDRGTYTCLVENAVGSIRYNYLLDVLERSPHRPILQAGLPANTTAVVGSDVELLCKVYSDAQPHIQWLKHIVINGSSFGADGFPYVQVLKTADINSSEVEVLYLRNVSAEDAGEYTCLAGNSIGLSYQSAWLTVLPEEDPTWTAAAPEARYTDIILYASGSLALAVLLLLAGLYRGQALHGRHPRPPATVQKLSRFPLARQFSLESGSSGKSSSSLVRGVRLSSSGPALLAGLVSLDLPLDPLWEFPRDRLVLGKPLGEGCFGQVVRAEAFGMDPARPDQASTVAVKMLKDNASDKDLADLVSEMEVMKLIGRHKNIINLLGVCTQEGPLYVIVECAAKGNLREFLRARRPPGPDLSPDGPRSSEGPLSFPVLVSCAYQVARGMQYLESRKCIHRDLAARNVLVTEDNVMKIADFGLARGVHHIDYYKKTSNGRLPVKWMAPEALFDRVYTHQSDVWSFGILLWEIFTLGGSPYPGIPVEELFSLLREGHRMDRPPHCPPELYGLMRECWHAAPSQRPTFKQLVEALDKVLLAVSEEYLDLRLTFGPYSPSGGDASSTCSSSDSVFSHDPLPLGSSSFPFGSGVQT
T1 sequence (P22455 whole entry, change not shown, the tested form may be a part): as the sequence (P22455 whole entry V550L, the tested form may be a part) above, with L550V counted along it
FGFR4 V550L kinase, sequence (P22455 22-802 V550L): as the sequence (P22455 22-802) above, with V529L counted along it

For the compound `C=CC(=O)Nc1cc(N2CCC(N(C)C3CCOCC3)CC2)ccc1Nc1ncc(C#N)c(Nc2ccccc2OC(C)C)n1` [Example 78, N-(2-((5-cyano-4-((2-isopropoxyphenyl)amino)pyrimidin-2-yl)amino)-5-(4-(methyl(tetrahydro-2H-pyran-4-yl)amino)piperidin-1-yl)phenyl) acrylamide], the IC50 on FGFR4 kinase and on FGFR4 V550L kinase was not above 0.01 µM in each case. The GI50 (on Ba/F3 ETV6-FGFR4 cells; in series [1]) was not above 0.01 µM each time.
In the case of `C=CC(=O)Nc1cc(N2CCC(N3CCN(C)CC3)CC2)ccc1Nc1ncc(C#N)c(Nc2ccccc2CC(C)C)n1` [Example 79, N-(2-((5-cyano-4-((2-isobutylphenyl)amino)pyrimidin-2-yl)amino)-5-(4-(4-methylpiperazin-1-yl)piperidin-1-yl)phenyl)acrylamide], the results for the half-maximal inhibitory concentration (IC50) against FGFR4 kinase and at FGFR4 V550L kinase were 0.01 to 0.05 µM and 0.05 to 0.1 µM, respectively. The GI50 (at Ba/F3 ETV6-FGFR4 cells; in series [1]) was 0.01 to 0.05 µM throughout.
In the case of `C=CC(=O)Nc1cc(N2CCC(N3CCN(C)CC3)CC2)ccc1Nc1ncc(C#N)c(Nc2ccccc2S(=O)(=O)C(C)C)n1` [Example 80, N-(2-((5-cyano-4-((2-(isopropylsulfonyl)phenyl)amino)pyrimidin-2-yl)amino)-5-(4-(4-methylpiperazin-1-yl)piperidin-1-yl)phenyl) acrylamide], the IC50 at FGFR4 kinase and against FGFR4 V550L kinase was not above 0.01 µM throughout. The GI50 (at Ba/F3 ETV6-FGFR4 cells; in series [1]) was not above 0.01 µM throughout.
Regarding `C=CC(=O)Nc1cc(N2CCC(N3CCN(C)CC3)CC2)ccc1Nc1ncc(C#N)c(Nc2ccccc2SC(C)C)n1` [Example 81], the IC50 against FGFR4 kinase and against FGFR4 V550L kinase was not above 0.01 µM each time. Also, the GI50 (at Ba/F3 ETV6-FGFR4 cells; in series [1]) was not above 0.01 µM in each case.
Turning to `C=CC(=O)Nc1cc(N2CCN(CC)CC2)ccc1Nc1cc(N(C)C(=O)Nc2c(Cl)c(OC)cc(OC)c2Cl)ncn1` [Example H3B6527], the “antitumor activity against FGF19 gene-amplified cells” value in series [2] is on record as “strong antitumor activity”. Moreover, the “bile acid-related adverse effects” value in series [3] was “without bile acid-related adverse effects”.
On to `CCN(CC)CCCCNc1ncc2cc(-c3cc(OC)cc(OC)c3)c(NC(=O)NC(C)(C)C)nc2n1` [PD173074], for which, in the series on FGFR, the FGFR inhibitory activity entry was “nanomolar inhibitory activity”.
Take `C=CC(=O)N1CCN(CCCn2c(=O)c(-c3c(Cl)c(OC)cc(OC)c3Cl)cc3cnc(NC)nc32)CC1` [PRN-1371]: the “enzymatic inhibitory activity against each subtype of FGFR” value in the series on each subtype of FGFR is “nanomolar levels”.

The IC50 is the midpoint of a concentration-inhibition curve.
